This is an account of results in the Kinase Knowledgebase extract (Sharma et al. 2016).

Experiment [1] has as its target MAPK14 (UniProt Q16539). Kind of experiment: p38-alpha Inhibition.
For experiment [2], the system named is MAPK14 (Lewis rat). Kind of experiment: Adjuvant-Induced Arthritis Model.
Experiment [3] has as its target MAPK14 (human) (UniProt Q16539). Kind of experiment: p38 --- TNFalpha Release Inhibition. The following applies: monocyte.

Molecules are shown by their SMILES. Where “and” joins values, the source holds several entries; their conditions need not be identical. Equal values may be shown once.

One may read the IC50 as the point on the concentration scale where inhibition reaches its midpoint. A word on the inhibition: it is how much of the control response was suppressed. The low end stands for little suppression, the high end for strong suppression.

MAPK14, sequence (Q16539 whole entry, looked up): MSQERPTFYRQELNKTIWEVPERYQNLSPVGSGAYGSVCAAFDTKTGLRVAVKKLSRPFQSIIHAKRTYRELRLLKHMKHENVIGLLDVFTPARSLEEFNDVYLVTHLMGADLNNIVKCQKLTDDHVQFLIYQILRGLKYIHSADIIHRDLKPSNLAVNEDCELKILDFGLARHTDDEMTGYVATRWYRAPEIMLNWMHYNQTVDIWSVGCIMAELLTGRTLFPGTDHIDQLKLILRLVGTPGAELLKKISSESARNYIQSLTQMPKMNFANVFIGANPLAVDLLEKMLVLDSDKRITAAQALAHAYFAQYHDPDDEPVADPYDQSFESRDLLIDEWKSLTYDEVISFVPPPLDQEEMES
MAPK14 (human), sequence (Q16539 whole entry, looked up): as above

In turn, `CCOC(=O)c1ccc(-c2[nH]c(-c3ccccc3)cc2-c2ccncc2)cc1` yielded an IC50 in experiment [1] above 10000 nM. Consider `COc1ccc2c(c1)c(CC(=O)O)c(C)n2C(=O)c1ccc(Cl)cc1`, for which the score in experiment [2] was 4.9 and 2.9. `O=c1c(-c2ccncc2)c(-c2ccc(F)cc2)[nH]n1-c1ccc(Cl)cc1` displayed an inhibition in experiment [1] (concentration not given here) of 43%. Consider `C[S+]([O-])c1ccc(-c2cc(-c3ccncc3)c(-c3ccc(F)cc3)[nH]2)cc1` (stereo not given), for which the IC50 in experiment [3] was 65 nM. Besides, in experiment [2], the ID50 amounted to 7.4 mg/kg/day; the score was 3.6 and 1.6.

For the compound `CC(C)(C)Oc1ccc(-c2[nH]c(-c3ccccc3)cc2-c2ccncc2)cc1`, in experiment [1], the IC50 was above 1000 nM. In experiment [3], `CS(=O)(=O)c1ccc(-c2cc(-c3ccncc3)c(-c3ccc(F)cc3)[nH]2)cc1` gave an IC50 of 23 nM.

In the case of `Fc1ccc(-c2[nH]c(-c3ccc(Br)cc3)cc2-c2ccncc2)cc1`, the IC50 in experiment [1] was determined as 100 nM. Same read-out and setting: for `Fc1ccc(-c2[nH]c(-c3ccc(Cl)cc3)cc2-c2ccccn2)cc1` the value was above 10000 nM.
